Read-outs that look alike come from different tables or passages of the source.

In experiment [1] the target is T1, hTLR7 (human Toll-like receptor 7) (Homo sapiens, UniProt Q9NYK1).
T1 construct: host or cells: HEK-Blue hTLR7 (HEK293-derived reporter cells)
T1 sequence (Q9NYK1 27-1049): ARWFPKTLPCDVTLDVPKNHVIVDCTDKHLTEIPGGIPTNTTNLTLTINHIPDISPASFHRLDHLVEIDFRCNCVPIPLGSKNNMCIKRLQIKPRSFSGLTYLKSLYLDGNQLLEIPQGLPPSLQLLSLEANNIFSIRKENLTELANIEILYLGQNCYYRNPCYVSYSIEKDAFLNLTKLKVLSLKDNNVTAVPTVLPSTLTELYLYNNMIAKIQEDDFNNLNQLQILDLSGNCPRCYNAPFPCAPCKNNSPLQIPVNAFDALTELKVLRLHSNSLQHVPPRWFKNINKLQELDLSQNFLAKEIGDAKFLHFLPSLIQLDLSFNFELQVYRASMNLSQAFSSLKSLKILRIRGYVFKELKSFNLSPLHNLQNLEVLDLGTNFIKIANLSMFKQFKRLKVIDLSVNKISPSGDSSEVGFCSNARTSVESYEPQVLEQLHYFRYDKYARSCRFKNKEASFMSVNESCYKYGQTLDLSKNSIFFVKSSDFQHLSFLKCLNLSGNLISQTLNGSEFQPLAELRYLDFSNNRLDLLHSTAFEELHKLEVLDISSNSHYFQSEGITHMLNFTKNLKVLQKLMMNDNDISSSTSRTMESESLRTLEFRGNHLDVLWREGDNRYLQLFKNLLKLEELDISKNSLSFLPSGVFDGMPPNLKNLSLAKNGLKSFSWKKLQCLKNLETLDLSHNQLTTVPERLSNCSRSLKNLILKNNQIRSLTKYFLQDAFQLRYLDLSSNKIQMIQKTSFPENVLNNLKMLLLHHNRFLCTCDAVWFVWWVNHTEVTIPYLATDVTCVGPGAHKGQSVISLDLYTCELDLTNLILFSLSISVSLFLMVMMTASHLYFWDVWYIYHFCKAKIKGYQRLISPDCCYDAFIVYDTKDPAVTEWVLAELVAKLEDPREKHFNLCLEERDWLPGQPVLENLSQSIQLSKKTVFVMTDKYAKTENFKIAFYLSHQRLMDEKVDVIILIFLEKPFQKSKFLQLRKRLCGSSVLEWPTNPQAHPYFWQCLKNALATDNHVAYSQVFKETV
Kind of experiment: HEK-Blue hTLR7 reporter assay (QUANTI-Blue, OD650). It is filed as cell-based. The settings on record: HEK-Blue hTLR7 cells, 24 h, read-out: Reporter assay TLR7 EC50. The protocol:
In this example, the agonistic activity of the compounds of the present application on hTLR7 (human Toll-like receptor 7) and hTLR8 (human Toll-like receptor 8) was assessed; the induction activity of the compounds on human PBMCs for TNF-α and IFN-α production was assessed in human PBMCs (human peripheral blood mononuclear cells).
All compounds were formulated in DMSO into 30 mM stock solutions and preserved at 4° C. The reference compound ([…], Cat. No. tlrl-r848-5) was purchased from InvivoGen and formulated into a 5 mg/mL stock solution in DMSO and preserved in a freezer at −20° C. HEK-Blue hTLR7 and HEK-Blue hTLR8 cell lines were purchased from InvivoGen, and human PBMCs were purchased from Shanghai Saily Biotechnology Co., Ltd. (Cat. No. XFB—HP100B).
The major instruments used in this study were multifunctional microplate reader Flexstation III (Molecular Device), Envision (Perkin Elmer), M2e (Molecular Device), and Echo555 (Labcyte). 2.1 Agonistic activity of compounds on hTLR7 (human Toll-like receptor 7) and hTLR8 (human Toll-like receptor 8)
Compound dilution: The compounds of the present application are diluted in DMSO, for example, to about 15 mM. The reference compound was added to the plates in sequence after dilution. The compounds were serially 3-fold diluted to 10 concentrations and added to 96-well plates in duplicate.
For the negative control wells, DMSO was added at 0.2 μL/well, and the reference compound was added to the positive control wells. The final concentration of DMSO was 0.2%.
Cell plating: When an 80% confluence of HEK Blue hTLR7&8 cells in the culture flask was observed under a microscope, the culture medium was discarded, 10 mL of detection medium was added, and the cells were separated by pipetting. The cells were counted on a cytometer and diluted to 500,000 cells/mL. The cells were plated at 100 μL/50,000 cells/well in the 96-well plates containing the compounds. The compounds and cells were co-incubated at 37° C. in a 5% CO2 incubator for 24 hours.
Compound activity detection: 20 μL of cell supernatant was taken from each well and added to a plate containing QUANTI-Blue™ reagent at 180 μL/well. The plate was incubated at 37° C. for 1 hour, and the absorbance at 650 nm (OD650) was measured on the multifunctional microplate reader Flexstation III.
Compound activity data analysis: The OD650 values were analyzed by GraphPad Prism software and fitted to give dose-response curves of the compounds. The EC50 values of compounds were calculated.
(In general: A reporter such as luciferase makes a cellular process visible.)

Experiment [2] deals with IFN-α production in human PBMCs. Kind of experiment: Induction of IFN-α in human PBMCs (ELISA). The format is cell-based. The conditions noted are these: PBMC, 24 h, read-out: PBMC assay IFNa EC50. How it is done:
In this example, the induction activity of the compounds of the present application on human PBMCs for TNF-α and IFN-α production was assessed in human PBMCs (human peripheral blood mononuclear cells). The human PBMCs were purchased from Shanghai Saily Biotechnology Co., Ltd. (Cat. No. XFB—HP100B). PBMC cells were treated with the compounds. The compounds of the present application are diluted in DMSO, for example, to about 15 mM. The reference compound was added to the plates in sequence after diluted to 5 mg/mL. The compounds were serially 3- or 4-fold diluted to 8 concentrations and added to plates in duplicate (Table 2-1 for serial 3-fold dilutions and Table 2-2 for serial 4-fold dilutions). For the negative control wells, DMSO was added at 0.4 μL/well, and a 5 mg/mL reference compound solution was added to the positive control wells at 0.4 μL/well. The final concentration of DMSO was 0.2%. Frozen human PBMCs in cryopreservation tubes were quickly thawed in a 37° C. water bath and transferred into 50-mL centrifuge tubes. Prewarmed RPMI1640 medium was gradually added and the mixture was well mixed and centrifuged for 15 min before the supernatant was discarded. The cells were resuspended in a culture medium and counted. The cell suspension was adjusted to 2.5×10^6 cells/mL with the culture medium. Diluted cells were added at 200 μL/500,000 cells/well in 96-well plates containing the compounds. The cell plates were incubated at 37° C./5% CO2 for 24 h.
The plate was washed 4 times, then the detection antibody was added. […] The plate was washed 4 additional times, then the enzyme was added. […] Termination of reaction: The reaction was terminated by quickly adding the stop solution at 100 μL/well. Plate reading: The reading at wavelength 450 nm was detected by an M2e instrument within 10 min after the termination.
Compound activity data analysis: The OD450 values were converted to TNF-α and IFN-α contents by GraphPad Prism software analysis and fitted to give dose-response curves of the compounds. The EC50 values for the compounds were calculated, where the Emax values are the maximal values for TNF-α and IFN-α.
Background: An ELISA detects its analyte on a solid surface through an enzyme-linked reagent.

[3] abbreviates: serial 4-fold dilutions, class symbols.

For orientation: EC50 means the concentration needed to bring the measured effect to its halfway point. For the compound `CCCN(OCc1ccc(N)cc1)C(=O)C1=Cc2ccc(-c3cncc(CO)c3)cc2N=C(N)C1` [Compound 15], the EC50 in experiment [1] was determined as 712 nM; in experiment [2] (serial 3-fold dilutions) it was 3.02 nM.
`CCCN(OCc1ccc(N)cc1)C(=O)C1=Cc2ccc(-c3cncc(C(=O)O)c3)cc2N=C(N)C1` [Compound 32]: the results for the EC50 in experiment [1] (class symbols) and in experiment [2] (setting [3]) were greater than 1000 nM and 50 to 500 nM, respectively.
Turning to `CCCN(OCc1ccc(N)cc1)C(=O)C1=Cc2ccc(-c3cccc(S(N)(=O)=O)c3)cc2N=C(N)C1` [Compound 35], the EC50 in experiment [1] was determined as 758 nM; in experiment [2] (serial 3-fold dilutions) it was 2.95 nM.
The like results for `CCCN(OCc1ccc(N)cc1)C(=O)C1=Cc2ccc(-c3cncc(S(N)(=O)=O)c3)cc2N=C(N)C1` [Compound 36] were, in that order, 1080 nM and 6.05 nM.
As to `CCCN(OCc1ccc(N)cc1)C(=O)C1=Cc2ccc(C(=O)N3CC(CO)C3)cc2N=C(N)C1` [Compound 37], the EC50 in experiment [1] (class symbols) was greater than 1000 nM; in experiment [2] (setting [3]), greater than 500 nM.
As for `CCCN(OCc1ccc(N)cc1)C(=O)C1=Cc2ccc(C(=O)Nc3cccnc3)cc2N=C(N)C1` [Compound 40], the EC50 in experiment [1] stood at 11700 nM; in experiment [2] (serial 3-fold dilutions), 1320 nM.
As to `CCCN(OCc1ccc(N)cc1)C(=O)C1=Cc2ccc(-c3cccc(S(=O)(=O)N4CC(O)C4)c3)cc2N=C(N)C1` [Compound 41], the results for the EC50 in experiment [1], in experiment [2] (serial 3-fold dilutions) and in experiment [2] (setting [3]) were 2240 nM, 31.1 nM and 50 to 500 nM, respectively.
On to `CCCN(OCc1ccc(N)cc1)C(=O)C1=Cc2ccc(-c3ccc(C(=O)N4CC[C@@H](O)C4)cc3)cc2N=C(N)C1` [Compound 42], for which the half-maximal effective concentration (EC50) was greater than 1000 nM in experiment [1] (class symbols), 48.3 nM in experiment [2] (serial 3-fold dilutions) and greater than 500 nM in experiment [2] (setting [3]).
For the compound `CCCN(OCc1ccc(N)cc1)C(=O)C1=Cc2ccc(-c3ccc4c(c3)C(=O)OC4)cc2N=C(N)C1` [Compound 43], the EC50 in experiment [1] turned out to be 180 nM; in experiment [2] (serial 3-fold dilutions), 29.6 nM.
Take `NC1=Nc2cc(-c3cncc(CO)c3)ccc2C=C(C(=O)N(CC2CC2)OCc2ccc(N)cc2)C1` [Compound 45]: the figures for the EC50 in experiment [1] and in experiment [2] (serial 3-fold dilutions) were 1160 nM and 7.25 nM, respectively.
For `CCCN(OCc1ccc(N)cc1)C(=O)C1=Cc2ccc(C(=O)N3CCC(O)C3)cc2N=C(N)C1` (centres unmarked) [Compound 46], the concentration giving a half-maximal response (EC50) in experiment [1] (class symbols) is greater than 1000 nM; in experiment [2] (setting [3]) it was 50 to 500 nM.
In the case of `CCCN(OCc1ccc(N)cc1)C(=O)C1=Cc2ccc(C(=O)N3CCOC(CO)C3)cc2N=C(N)C1` (centres unmarked) [Compound 47], the results for the EC50 in experiment [1] (class symbols) and in experiment [2] (setting [3]) were greater than 1000 nM and 50 to 500 nM, respectively.
Taken in the same sequence, the figures for `CCCN(OCc1ccc(N)cc1)C(=O)C1=Cc2ccc(C(=O)NCCO)cc2N=C(N)C1` [Compound 48] were greater than 1000 nM and greater than 500 nM.
In the case of `CCCN(OCc1ccc(N)cc1)C(=O)C1=Cc2ccc(-c3cncc(Cl)c3)cc2N=C(N)C1` [Compound 49], the EC50 in experiment [1] amounted to 245 nM; in experiment [2] (serial 3-fold dilutions) it was 48.2 nM.
Regarding `CCCN(OCc1ccc(N)cc1)C(=O)C1=Cc2ccc(-c3cncc(C#N)c3)cc2N=C(N)C1` [Compound 50], the EC50 was determined as 274 nM in experiment [1] and 41.5 nM in experiment [2] (serial 3-fold dilutions).
Take `CCCN(OCc1ccc(N)cc1)C(=O)C1=Cc2ccc(-c3ccc(C#N)nc3)cc2N=C(N)C1` [Compound 51]: the EC50 came out at 428 nM in experiment [1] and 142 nM in experiment [2] (serial 3-fold dilutions).
Taken in the same sequence, the figures for `CCCN(OCc1ccc(N)cc1)C(=O)C1=Cc2ccc(-c3cncc(N)c3)cc2N=C(N)C1` [Compound 52] were 355 nM and 6.58 nM.
Regarding `CCCN(OCc1ccc(N)cc1)C(=O)C1=Cc2ccc(-c3cncc(C(F)(F)F)c3)cc2N=C(N)C1` [Compound 53], the EC50 in experiment [1] (class symbols) fell in the range of 100 to 1000 nM; in experiment [2] (setting [3]) it was 50 to 500 nM.
Consider `CCCN(OCc1ccc(N)cc1)C(=O)C1=Cc2ccc(-c3cncc(CN)c3)cc2N=C(N)C1` [Compound 54], for which the EC50 in experiment [1] came out at 528 nM; in experiment [2] (serial 3-fold dilutions), 5.35 nM.
Regarding `CCCN(OCc1ccc(N)cc1)C(=O)C1=Cc2ccc(-c3ccc(N4CCOCC4)nc3)cc2N=C(N)C1` [Compound 55], the half-maximal effective concentration (EC50) in experiment [1] was determined as 685 nM; in experiment [2] (serial 3-fold dilutions) it was 43.4 nM.
Consider `CCCN(OCc1ccc(N)cc1)C(=O)C1=Cc2ccc(-c3cncc(S(C)(=O)=O)c3)cc2N=C(N)C1` [Compound 56], for which the EC50 in experiment [1] was found to be 664 nM; in experiment [2] (serial 3-fold dilutions), 28.5 nM.
